Each structure is given as a SMILES string. Counter-ions that a name gives are not always drawn.

In the first test the target is T1, human V1a receptor (Homo sapiens, UniProt P37288).
T1 construct: expressed in transfected cells; host or cells: HEK293 cells, transiently transfected; cell membranes prepared
T1 sequence (P37288 whole entry): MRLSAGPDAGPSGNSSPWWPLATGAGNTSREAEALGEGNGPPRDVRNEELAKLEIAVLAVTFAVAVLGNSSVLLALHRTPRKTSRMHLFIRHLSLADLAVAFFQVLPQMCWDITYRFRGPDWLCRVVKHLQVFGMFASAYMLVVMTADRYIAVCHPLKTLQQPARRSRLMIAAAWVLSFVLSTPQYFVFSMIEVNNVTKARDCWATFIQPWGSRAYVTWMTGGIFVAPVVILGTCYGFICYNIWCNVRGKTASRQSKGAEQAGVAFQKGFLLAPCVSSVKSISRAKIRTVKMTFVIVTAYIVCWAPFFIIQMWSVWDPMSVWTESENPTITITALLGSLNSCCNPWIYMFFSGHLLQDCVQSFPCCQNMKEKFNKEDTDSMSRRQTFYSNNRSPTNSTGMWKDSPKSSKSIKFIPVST
Kind of test: human V1a receptor binding study (3H-Vasopressin, SPA beads, HEK293 membranes).
Conditions: not given
As for the experimental part:
The human V1a receptor was cloned by RT-PCR from total human liver RNA. The coding sequence was subcloned in an expression vector after sequencing to confirm the identity of the amplified sequence. […] Cell membranes were prepared from HEK293 cells transiently transfected with the expression vector and grown in 20 liter fermenters with the following protocol.
50 g of cells are resuspended in 30 ml freshly prepared ice cold Lysis buffer (50 mM HEPES, 1 mM EDTA, 10 mM magnesium dichloride adjusted to pH=7.4+complete cocktail of protease inhibitor (Roche Diagnostics)). Homogenized with Polytron for 1 min and sonicated on ice for 2×2 minutes at 80% intensity (Vibracell sonicator). The preparation is centrifuged 20 min at 500 g at 4° C., the pellet is discarded and the supernatant centrifuged 1 hour at 43,000 g at 4° C. (19,000 rpm). The pellet is resuspended in 12.5 ml Lysis buffer+12.5 ml Sucrose 20% and homogenized using a Polytron for 1-2 min. The protein concentration is determined by the Bradford method and aliquots are stored at −80° C. until use. For binding studies 60 mg Yttrium silicate SPA beads (Amersham) are mixed with an aliquot of membrane in binding buffer (50 mM Tris, 120 mM sodium chloride, 5 mM potassium chloride, 2 mM Calcium dichloride, 10 mM magnesium dichloride) for 15 minutes with mixing. 50 μl of bead/membrane mixture is then added to each well of a 96 well plate, followed by 50 μl of 4 nM 3H-Vasopressin (American Radiolabeled Chemicals). For total binding measurement 100 μl of binding buffer are added to the respective wells, for non-specific binding 100 μl of 8.4 mM cold vasopressin and for compound testing 100 μl of a serial dilution of each compound in 2% dimethyl sulfoxide. The plate is incubated 1 h at room temperature, centrifuged 1 min at 1000 g and counted on a Packard Top-Count. Non-specific binding counts are subtracted from each well and data is normalized to the maximum specific binding set at 100%. To calculate an IC 50 the curve is fitted using a non-linear regression model (XLfit) and the Ki is calculated using the Cheng-Prussoff equation.
As for `CC(C)(C)OC(=O)N1Cc2cc(Cl)ccc2-n2c(nnc2[C@H]2CC[C@H](OC3COC3)CC2)C1` [Example 57, trans-8-Chloro-1-[4-(oxetan-3-yloxy)-cyclohexyl]-4H,6H-2,3,5,10b-tetraaza-benzo[e]azulene-5-carboxylic acid tert-butyl ester], the Ki is 6.17 nM. On to `CC(C)(C)OC(=O)N1Cc2cc(Cl)ccc2-n2c(nnc2[C@H]2CC[C@H](OC3CCC3)CC2)C1` [Example 30, trans-8-Chloro-1-(4-cyclobutoxy-cyclohexyl)-4H,6H-2,3,5,10b-tetraaza-benzo[e]azulene-5-carboxylic acid tert-butyl ester], for which the Ki was 2.82 nM. Take `CC(C)(C)OC(=O)N1Cc2cc(Cl)ccc2-n2c(nnc2[C@H]2CC[C@@H](OC3CCC3)CC2)C1` [Example 33, cis-8-Chloro-1-(4-cyclobutoxy-cyclohexyl)-4H,6H-2,3,5,10b-tetraaza-benzo[e]azulene-5-carboxylic acid tert-butyl ester]: the Ki is 7.59 nM.

Staying with this test, now noted: membranes of HEK293 cells transiently transfected with human V1a receptor; 3H-Vasopressin; Ki calculated using the Cheng-Prussoff equation; read-out: pKi (hV1a) (converted).
Take `Clc1ccc2c(c1)CNCc1nnc([C@H]3CC[C@@H](OC4CCC4)CC3)n1-2` [Example 34, cis-8-Chloro-1-(4-cyclobutoxy-cyclohexyl)-5,6-dihydro-4H-2,3,5,10b-tetraaza-benzo[e]azulene hydrochloride]: the Ki is 145 nM.

On to `Clc1ccc2c(c1)CNCc1nnc([C@H]3CC[C@H](OC4CCCCC4)CC3)n1-2` [Example 40, trans-8-Chloro-1-(4-cyclohexyloxy-cyclohexyl)-5,6-dihydro-4H-2,3,5,10b-tetraaza-benzoazulene hydrochloride], for which the Ki was 34.7 nM. For `CC(C)O[C@H]1CC[C@H](c2nnc3n2-c2ccc(Cl)cc2CN(C(C)C)C3)CC1` [Example 13, trans-8-Chloro-1-(4-isopropoxy-cyclohexyl)-5-isopropyl-5,6-dihydro-4H-2,3,5,10b-tetraaza-benzoazulene], the Ki is 1.51 nM. For the molecule `COCC(C)O[C@H]1CC[C@H](c2nnc3n2-c2ccc(Cl)cc2CN(C)C3)CC1` (mixture of isomers) [Example 47, (RS)-trans-8-Chloro-1-[4-(2-methoxy-1-methyl-ethoxy)-cyclohexyl]-5-methyl-5,6-dihydro-4H-2,3,5,10b-tetraaza-benzo[e]azulene], the Ki was 11.2 nM.

With `COCC(C)O[C@H]1CC[C@H](c2nnc3n2-c2ccc(Cl)cc2CN(C(=O)OC(C)(C)C)C3)CC1` (mixture of isomers) [Example 45, (RS)-trans-8-Chloro-1-[4-(2-methoxy-1-methyl-ethoxy)-cyclohexyl]-4H,6H-2,3,5,10b-tetraaza-benzo[e]azulene-5-carboxylic acid tert-butyl ester], the Ki was 3.72 nM.

As to `CN1Cc2cc(Cl)ccc2-n2c(nnc2[C@H]2CC[C@@H](OC3CCC3)CC2)C1` [Example 35, cis-8-Chloro-1-(4-cyclobutoxy-cyclohexyl)-5-methyl-5,6-dihydro-4H-2,3,5,10b-tetraaza-benzo[e]azulene], the Ki was 7.94 nM. On the same count and under the same terms, then `CCO[C@H]1CC[C@@H](c2nnc3n2-c2ccc(Cl)cc2CNC3)CC1` [Example 6, cis-8-Chloro-1-(4-ethoxy-cyclohexyl)-5,6-dihydro-4H-2,3,5,10b-tetraaza-benzo[e]azulene hydrochloride], with 891 nM. In the case of `CC(C)(C)OC(=O)N1Cc2cc(Cl)ccc2-n2c(nnc2[C@H]2CC[C@H](OC3CCOCC3)CC2)C1` [Example 59, trans-8-Chloro-1-[4-(tetrahydro-pyran-4-yloxy)-cyclohexyl]-4H,6H-2,3,5,10b-tetraaza-benzoazulene-5-carboxylic acid tert-butyl ester], the Ki was 5.62 nM. `CC(C)(C)OC(=O)N1Cc2cc(Cl)ccc2-n2c(nnc2[C@H]2CC[C@H](OC(F)(F)F)CC2)C1` [Example 65, trans-8-Chloro-1-(4-trifluoromethoxy-cyclohexyl)-4H,6H-2,3,5,10b-tetraaza-benzo[e]azulene-5-carboxylic acid tert-butyl ester]: the Ki is 14.5 nM.

These data come from US8642590B2, “Alkylcyclohexylethers of dihydrotetraazabenzoazulenes” (Hoffmann-La Roche Inc., priority 2008, dated 2014).
